Measured values from patent US9072746B2, “Method for enhancing learning and memory impaired by neurodegenerative disorders and compounds and compositions for effecting the same” (The Board of Trustees of the Leland Stanford Junior …, priority 2010, dated 2015).
“Also recorded” adds a separate entry of the source.

Experiments:
Assay type in all cases: in vivo
[1] = tested on: male 2N mice; assay: T-maze spontaneous alternation; settings: xamoterol 3 mg/kg s.c. 1 h, betaxolol 1 mg/kg s.c. 30 min before testing
From the text: (§1) The T-maze had 3 equal arms (30 cm length, 10 cm width, and 20 cm height). The start arm and 2 goal arms had guillotine gates. This test was based on the rodents' preference to experience a new arm of the T-maze instead of a familiar one ([…], 1998). In each trial, the mouse was placed in the start arm. The gate was then opened and the mouse was able to freely explore the arms. As soon as the mouse entered one goal arm, the sliding gate of the other goal arm closed. The mouse eventually returned to the start arm and the next trial was started. In the next trial, the mouse may recognize the previously chosen goal arm and choose to explore a new arm rather than revisit the previously visited arm. This trial was repeated 11 times per day for 3 consecutive days, for a total of 33 trials. The maze was cleaned with 50% ethanol between trials to eliminate odor. Percent of alternation (number of turns in each goal arm) was used for analysis. This protocol has been described before by Belichenko et al. (2009) and is modified from a Deacon and Rawlins (2006) protocol (Deacon and Rawlins, 2006; Belichenko et al., 2009). […] In this part of the study, activity chamber and three cognitive tests, including T-maze spontaneous alternation, contextual fear conditioning (CFC), and novel object recognition were performed. In T-maze spontaneous alternation and contextual fear conditioning, both Ts65Dn and 2N male mice were divided into three treatment groups including normal saline (Vehicle), xamoterol, and betaxolol plus xamoterol groups. In the novel object recognition test, both Ts65Dn and 2N male mice were divided into two treatment groups, normal saline and xamoterol. The T-maze was performed exactly as previously described. […] On the first day (training day), animals were placed in the fear conditioning chamber, and after a 3-minute pre-shock period, they were exposed to 5 shocks (2 s, 0.5 mA,) with inter-trial intervals of 80 seconds and no tone. On the second day, the animals first received xamoterol, xamoterol plus betaxolol, or saline injection, and one hour later, they were placed in the same chamber for 5 minutes. Similar to the previous description of fear conditioning, freezing was defined as the complete lack of motion for a minimum of o.75 second. The Novel Object Recognition task is conducted in an open field arena (40 cm×40 cm). Mice were habituated in the testing room for 1 hour followed by 5 minutes habituation inside the arena without any objects. On 4th day animals were introduced 3 times to arena with 3 identical subjects for 10 minutes with 3 minutes inter trial intervals. On 5th day (24 hours after trainings) one of the objects replaced by a novel one and the time sniffing of each object were used for analysis. For testing the role of β1 adrenergic system, xamoterol and betaxolol (Tocris Bioscience, Ellisville, Mo.) were injected subcutaneously using 10 ml/kg normal saline as vehicle. Xamoterol, (3 mg/kg) was given one hour before testing and betaxolol (1 mg/kg) was given 30 minutes before testing.

[2] = tested on: male Ts65Dn mice; assay: T-maze spontaneous alternation; settings: for effect on T-maze spontaneous alternation deficit: xamoterol 3 mg/kg s.c.
From the text: as §1

[3] = Plasma and brain sample analysis after subcutaneous injection (FIG. 10C, D); settings: after subcutaneous injection of 3 mg/kg
Experimental: FIG. 10 Xamoterol improves the memory retrieval dose-dependently by interaction with the adrenergic receptors in central nervous system. […] In all experiments xamoterol 3 mg/kg, atenolol 3 mg/kg, and betaxolol 1 mg/kg were injected subcutaneously. […] Results are shown as mean+SEM (ns=not significant, *=p<0.05, and **=p<0.01).

[4] = tested on: male 2N mice; assay: Contextual fear conditioning; settings: xamoterol 3 mg/kg s.c. 1 h, betaxolol 1 mg/kg s.c. 30 min before testing
Experimental: (§2) Contextual and Cued fear conditioning was conducted for evaluation of fear-dependent learning and retrieval in the study. The test was performed using chambers from Coulbourn Instruments (Whitehall, Pa.). On the first day, the animals were placed in a chamber (Context A) for 3 min for baseline recording, followed by 5 tone-shock pairings. The shock (0.5 mA, 2 sec) was delivered following the tone (70 dB, 2 kHz, 20 sec) in each conditional/unconditional stimulus pairing. On the second day a novel chamber (Context B; new room, new olfactory environment, texture of floor, blue plastic inserts for walls, extra source of blue light, and visual cues) was used for cued testing. Three tones without shocks were presented to animals during a 3 min testing period following a 3 min pre-tone period. On the last day of the experiment, the mice were placed in Context A for 5 min without any conditional and unconditional stimulus {modified from the method described by (Saxe et al., 2006)}. Freezing was defined as the complete lack of motion for a minimum of 0.75 second as measured by FreezeFrame software (Actimetrics, Evanston, Ill.). The percent of freezing in each period was reported. For the startle response control test, an acoustic startle reflex apparatus (Med Associates Inc., St. Albans, Vt.) was used. The subjects were acclimated to the animal holder in the startle box for a total of 15 min over 3 consecutive-days prior to the experiment. The animals were exposed to 25 different trials with 10-20 second randomly variable inter-trial intervals. Five different intensities of startle pulses, 0, 90, 100, 110, and 120 dB, were randomly used, and each animal was randomly exposed 5 times to each intensity of the startle pulse. The duration of each startle pulse was 40 ms and the peak amplitude of the startle response in each trial was recorded for analysis. The holding cage on the apparatus was cleaned with 10% alcohol between each animal. […] In this part of the study, activity chamber and three cognitive tests, including T-maze spontaneous alternation, contextual fear conditioning (CFC), and novel object recognition were performed. In T-maze spontaneous alternation and contextual fear conditioning, both Ts65Dn and 2N male mice were divided into three treatment groups including normal saline (Vehicle), xamoterol, and betaxolol plus xamoterol groups. In the novel object recognition test, both Ts65Dn and 2N male mice were divided into two treatment groups, normal saline and xamoterol. The T-maze was performed exactly as previously described. […] On the first day (training day), animals were placed in the fear conditioning chamber, and after a 3-minute pre-shock period, they were exposed to 5 shocks (2 s, 0.5 mA,) with inter-trial intervals of 80 seconds and no tone. On the second day, the animals first received xamoterol, xamoterol plus betaxolol, or saline injection, and one hour later, they were placed in the same chamber for 5 minutes. Similar to the previous description of fear conditioning, freezing was defined as the complete lack of motion for a minimum of o.75 second. The Novel Object Recognition task is conducted in an open field arena (40 cm×40 cm). Mice were habituated in the testing room for 1 hour followed by 5 minutes habituation inside the arena without any objects. On 4th day animals were introduced 3 times to arena with 3 identical subjects for 10 minutes with 3 minutes inter trial intervals. On 5th day (24 hours after trainings) one of the objects replaced by a novel one and the time sniffing of each object were used for analysis. For testing the role of β1 adrenergic system, xamoterol and betaxolol (Tocris Bioscience, Ellisville, Mo.) were injected subcutaneously using 10 ml/kg normal saline as vehicle. Xamoterol, (3 mg/kg) was given one hour before testing and betaxolol (1 mg/kg) was given 30 minutes before testing.

[5] = tested on: male Ts65Dn mice; assay: Contextual fear conditioning; settings: for effect on memory retrieval deficit in contextual fear conditioning: xamoterol 3 mg/kg s.c. one hour before testing
Experimental: as §2

[6] = xamoterol 3 mg/kg s.c. 1 h, betaxolol 1 mg/kg s.c. 30 min before testing

SMILES: O=C(NCCNCC(O)COc1ccc(O)cc1)N1CCOCC1 (centres unmarked) [xamoterol]
- % of Spontaneous Alternation in T-maze, Mean ± SEM [1]: 64.4 ± 2.1%
- effect on T-maze spontaneous alternation deficit [2]: completely rescue; also recorded: rescued
- % of Spontaneous Alternation in T-maze, Mean ± SEM [2, 6]: 60.4 ± 4.5%
- effect on T-maze spontaneous alternation deficit ([2]; listed as Xamoterol): rescued
- effect on T-maze spontaneous alternation deficit ([2]; listed as Xamoterole): Xamoterole can rescue the deficit in
- access to blood and brain (plasma and brain samples) [3]: can get access to blood and brain
- % Freshing in Tone-cued Fear Conditioning, Mean ± SEM [4]: 38.43 ± 8.26%
- % Freshing in Tone-cued Fear Conditioning, Mean ± SEM [5, 6]: 45.36 ± 12.40%
- effect on memory retrieval deficit in contextual fear conditioning [5]: completely rescue
- effect on memory retrieval deficit in contextual fear conditioning ([5]; listed as Xamoterol): rescued; also recorded: improved
- effect on memory retrieval deficit in contextual fear conditioning ([5]; listed as Xamoterole): Xamoterole rescues the deficit in
